Measurements reported in patent US20240384268A1, “Oligonucleotides” (Hudson Institute of Medical Research, priority 2021, published 2024).
In the oligonucleotide strings, read from the 5' end, every base follows the letter of its sugar. An asterisk marks phosphorothioate; unmarked linkages are phosphodiester. Other units and linkages are bracketed, terminal groups are in braces. A string of capitals states the bases alone. d = 2'-deoxy (DNA); m = 2'-O-methyl

Molecular target: T1, human TLR9 (Homo sapiens, UniProt Q9NR96)
T1 construct: HA; host or cells: 293XL-hTLR9-HA (HEK293)
T1 sequence (Q9NR96 26-1032): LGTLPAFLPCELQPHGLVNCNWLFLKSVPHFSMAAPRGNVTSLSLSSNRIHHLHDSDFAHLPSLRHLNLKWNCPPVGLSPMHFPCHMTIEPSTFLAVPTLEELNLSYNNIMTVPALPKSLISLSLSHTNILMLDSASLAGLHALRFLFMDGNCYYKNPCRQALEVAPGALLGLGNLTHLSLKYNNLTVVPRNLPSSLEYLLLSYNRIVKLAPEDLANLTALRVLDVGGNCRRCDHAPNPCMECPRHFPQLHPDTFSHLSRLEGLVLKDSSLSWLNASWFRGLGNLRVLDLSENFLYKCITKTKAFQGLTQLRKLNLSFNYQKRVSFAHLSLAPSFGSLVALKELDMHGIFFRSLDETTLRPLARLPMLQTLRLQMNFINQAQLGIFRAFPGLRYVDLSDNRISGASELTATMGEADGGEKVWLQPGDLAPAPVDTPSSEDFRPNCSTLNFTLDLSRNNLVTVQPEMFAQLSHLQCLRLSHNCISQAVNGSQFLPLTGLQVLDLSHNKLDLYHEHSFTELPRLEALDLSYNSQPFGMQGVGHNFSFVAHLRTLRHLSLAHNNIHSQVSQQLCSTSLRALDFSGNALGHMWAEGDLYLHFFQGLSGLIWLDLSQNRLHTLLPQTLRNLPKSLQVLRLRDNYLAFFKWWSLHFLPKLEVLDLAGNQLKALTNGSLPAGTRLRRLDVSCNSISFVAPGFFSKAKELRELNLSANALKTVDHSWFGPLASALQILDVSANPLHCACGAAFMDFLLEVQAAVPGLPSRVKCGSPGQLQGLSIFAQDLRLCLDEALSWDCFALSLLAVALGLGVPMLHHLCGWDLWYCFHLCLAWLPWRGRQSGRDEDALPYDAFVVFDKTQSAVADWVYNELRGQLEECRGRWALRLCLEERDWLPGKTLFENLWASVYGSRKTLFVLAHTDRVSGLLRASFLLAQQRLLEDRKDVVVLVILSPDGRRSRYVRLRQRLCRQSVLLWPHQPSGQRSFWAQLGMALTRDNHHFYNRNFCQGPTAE
Test: HEK-TLR9 NF-κB-luciferase reporter, ODN2006 stimulation
Format: cell-based
Details: for TLR9-500 nM: averaged NF-κB-Luciferase relative to ODN2006: HEK-TLR9, 500 nM ASO 45 min, then 200 nM ODN2006 overnight, percentage of ODN2006 only; for TLR9 100 nM: MOE-modified ASO at 100 nM; for TLR9 100 nM / TLR9 500 nM: averaged NF-κB-Luciferase relative to ODN2006 condition; for TLR9 500 nM: MOE-modified ASO at 500 nM

Row | Substance | TLR9-500 nM: averaged NF-κB-Luciferase relative to ODN2006 [%] | TLR9 100 nM | TLR9 500 nM
1 | mG*mA*mU*mG*mG*T*T*C*C*A*G*T*C*C*C*mU*mC*mU*mU*mC (GAUGGTTCCAGTCCCUCUUC; antisense; sugars from the 5' end m5 d10 m5, all phosphorothioate, methylation of C not given here) [[LINC-PINT]1497.1] | 80.47 |  | 
2 | mU*mC*mU*mG*mG*T*C*C*C*A*T*C*C*C*T*mU*mC*mU*mG*mC (UCUGGTCCCATCCCTUCUGC; antisense; sugars from the 5' end m5 d10 m5, all phosphorothioate, methylation of C not given here) [[LINC-PINT]106] | 56.60 |  | 
3 | mU*mG*mU*mU*mU*C*C*C*C*G*G*A*G*A*G*mC*mA*mA*mU*mG (UGUUUCCCCGGAGAGCAAUG; antisense; sugars from the 5' end m5 d10 m5, all phosphorothioate, methylation of C not given here) [[LINC-PINT]501 KL] | 71.47 |  | 
4 | mU*mU*mA*mA*mA*T*A*A*T*C*T*A*G*T*T*mU*mG*mA*mA*mG (UUAAATAATCTAGTTUGAAG; sugars from the 5' end m5 d10 m5, all phosphorothioate, methylation of C not given here) [[CDKN2B-AS1]132] | 98.18 |  | 
5 | GCTGACAAAGATTCACTGGT (antisense; 2'-MOE modified, pattern not given here) [HPRT-1353 MOE] |  | 0.653 | 0.654
6 | mU*mG*mA*mC*mA*A*A*A*C*A*A*T*A*A*T*mA*mA*mC*mA*mG (mU*mG*mA*mC*mA*dA*dA*dA*dC*dA*dA*dT*dA*dA*dT*mA*mA*mC*mA*mG) [[LINC-PINT]384] | 53.61 |  | 
7 | mA*mA*mA*mU*mG*T*C*C*T*G*G*C*C*C*T*mC*mA*mC*mU*mG (mA*mA*mA*mU*mG*dT*dC*dC*dT*dG*dG*dC*dC*dC*dT*mC*mA*mC*mU*mG) [[LINC-PINT]148.1] | 46.72 |  | 
8 | mG*mU*mC*mC*mG*T*A*C*C*T*C*C*A*C*C*mC″mA*mC*mC*mG [[LINC-PINT]727.1] | 58.15 |  | 
9 | mU*mG*mU*mG*mA*A*A*A*G*A*T*T*A*T*C*mU*mU*mC*mU*mU (UGUGAAAAGATTATCUUCUU; sugars from the 5' end m5 d10 m5, all phosphorothioate, methylation of C not given here) [[CDKN2B-AS1]2137] | 62.16 |  | 
10 | TGGGTTACGGCTCAGTATGG (antisense; 2'-MOE modified, pattern not given here) [CAMSAP1-4295 MOE] |  | 0.478 | 0.228
11 | mA*mA*mA*mA*mU*A*A*G*G*G*G*A*A*T*A*mG*mG*mG*mG*mA (mA*mA*mA*mA*mU*dA*dA*dG*dG*dG*dG*dA*dA*dT*dA*mG*mG*mG*mG*mA; antisense) [[CDKN2B-AS1]79] | 67.44 |  | 
12 | mG*mC*mG*mU*mA*G*T*T*T*C*T*C*T*T*C*mC*mU*mC*mC*mC (GCGUAGTTTCTCTTCCUCCC; sugars from the 5' end m5 d10 m5, all phosphorothioate, methylation of C not given here) [[LINC-PINT]935 KL] | 52.04 |  | 
13 | mG*mU*mU*mC*mA*G*T*C*A*G*A*T*C*G*C*mU*mG*mG*mG*mA (mG*mU*mU*mC*mA*dG*dT*dC*dA*dG*dA*dT*dC*dG*dC*mU*mG*mG*mG*mA) [[LINC-PINT]412 KL] | 77.50 |  | 
14 | mU*mU*mA*mG*mC*T*C*C*T*T*G*C*C*T*C*mG*mU*mU*mC*mC (mU*mU*mA*mG*mC*dT*dC*dC*dT*dT*dG*dC*dC*dT*dC*mG*mU*mU*mC*mC; antisense) [[LINC-PINT] 1222] | 78.17 |  | 
15 | mC*mU*mU*mU*mA*T*A*T*T*A*C*A*A*A*G*mC*mU*mA*mC*mU (mC*mU*mU*mU*mA*dT*dA*dT*dT*dA*dC*dA*dA*dA*dG*mC*mU*mA*mC*mU; antisense) [[LINC-PINT]2755] | 84.43 |  | 
16 | mC*mC*mC*mU*mU*C*T*C*T*C*T*G*G*T*C*mC*mC*mA*mU*mC (mC*mC*mC*mU*mU*dC*dT*dC*dT*dC*dT*dG*dG*dT*dC*mC*mC*mA*mU*mC; antisense) [[LINC-PINT]114] | 62.09 |  | 
17 | mU*mU*mG*mG*mC*C*T*G*T*G*G*A*T*G*C*mU*mU*mU*mG*mU (mU*mU*mG*mG*mC*dC*dT*dG*dT*dG*dG*dA*dT*dG*dC*mU*mU*mU*mG*mU) [[LINC-PINT]2673.1] | 40.71 |  | 
